From patent US8992982B2, “Formulation of indomethacin” (Iceutica Pty Ltd., priority 2009, dated 2015)

Key:
[1] = system: pain after surgical removal of impacted third molars; assay: Phase 2 dental pain study: pain relief, 5-point categorical scale (TOTPAR, pain relief score, peak pain relief, time to peak pain relief); type: in vivo, human; details: for Pain relief score A Little (1), % / Pain relief score None (0), % / Pain relief score Some (2), % / Pain relief score A Lot (3), % / Pain relief score Complete (4), %: 400 mg; for TOTPAR-8, LS mean difference vs placebo: treatment - placebo
Description: This was a phase-2, multicenter, randomized, double-blind, single-dose, parallel-group, active- and placebo-controlled study to evaluate the efficacy and safety of Indomethacin Nanoformulation Capsules (20 mg and 40 mg) in subjects with postoperative dental pain.
On Day 1, eligible subjects underwent extraction of 2 or more third molars, at least 1 of which had to be a fully or partially bone-impacted mandibular molar. If only 2 molars were removed, then they had to be ipsilateral.
Subjects assessed their baseline pain intensity (VAS) before receiving study drug (predose, Time 0) and their pain intensity (VAS) and pain relief (5-point categorical scale) at 15, 30, and 45 minutes and 1, 1.5, 2, 3, 4, 5, 6, 7, and 8 hours after Time 0 and immediately before the first dose of rescue medication. The 2-stopwatch method was used to record the time to perceptible and time to meaningful pain relief, respectively. Acetaminophen (1000 mg) was permitted as the initial rescue medication. Subjects were encouraged to wait at least 60 minutes after receiving study drug before taking rescue medication. […] Other restrictions included the following: no alcohol use from 24 hours before surgery until discharge on Day 1; nothing by mouth (NPO) from midnight before surgery until 1 hour after surgery; clear liquids only from 1 hour after surgery until 1 hour after dosing; and advancement of diet 1 hour after dosing according to standard practice.
The primary efficacy endpoint was the sum of total pain relief (TOTPAR) over 0 to 8 hours (TOTPAR-8) after Time 0. The TOTPAR was calculated using the pain relief score (5-point categorical scale) at each follow-up time point weighted (multiplied) using the amount of time since the prior assessment.
(§1) The secondary efficacy endpoints were as follows: • TOTPAR over 0 to 4 hours (TOTPAR-4) after Time 0 • Visual Analogue Scale (VAS) pain intensity difference (VASPID) at each scheduled time point after Time 0 • Time to onset of analgesia (measured as time to perceptible pain relief confirmed by meaningful pain relief) • VAS pain intensity score at each scheduled time point • VAS summed pain intensity difference (VASSPID) over 0 to 4 hours (VASSPID-4) and over 0 to 8 hours (VASSPID-8) after Time 0 • Pain relief score at each scheduled time point after Time 0 • Peak pain relief • Time to peak pain relief • Time to first perceptible pain relief • Time to meaningful pain relief • Proportion of subjects using rescue medication • Time to first use of rescue medication (duration of analgesia) • Patient's global evaluation of study drug Safety:
The null hypothesis was that TOTPAR over 0 to 8 hours after Time 0 (TOTPAR-8) for placebo would be equal to TOTPAR-8 for 40-mg Indomethacin Nanoformulation Capsules. The null hypothesis was analyzed using analysis of covariance (ANCOVA) models, which included treatment effect and significant covariates. The effect of potential covariates, such as sex, baseline pain intensity, and surgical trauma rating, were assessed using appropriate ANCOVA models. The analysis was based on a 2-sided test at the significance level of 0.05.
The least squares (LS) mean and 95% confidence interval (CI) for each treatment regimen, the mean (LS mean) difference between the 2 treatments, and the associated P value and 95% CI for the mean difference were computed from the ANCOVA model. This analysis utilized primarily the ITT population, and sensitivity analysis utilized the PP population.
Other comparisons between the treatment regimens, including 20-mg Indomethacin Nanoformulation Capsules versus placebo and 400-mg celecoxib capsules versus placebo, were considered secondary but also utilized the ITT population. The primary efficacy variable was also summarized by site, but no P values or statistical tests for site were computed.
Each efficacy endpoint was summarized descriptively by treatment group. […]

[2] = system: pain after surgical removal of impacted third molars; assay: Phase 2 dental pain study: patient's global evaluation of study drug; type: in vivo, human; details: 400 mg; ITT
Description: as §1
For ordinal secondary endpoints such as pain relief at each scheduled time point, peak pain relief, and global evaluation of study drug, descriptive summaries including the number and percentage of subjects within each category were provided for each treatment group. Nominal P values from Cochran-Mantel-Haenszel tests comparing the placebo group with other treatment groups were provided, but no formal statistical inferences were drawn on the basis of these tests.

## Cc1ccc(-c2cc(C(F)(F)F)nn2-c2ccc(S(N)(=O)=O)cc2)cc1 [Celecoxib]
[1]; 15 minutes, ITT
  Pain relief score A Little (1), %: (21.6) %
  Pain relief score None (0), %: (74.5) %
  Pain relief score Some (2), %: (3.9) %
[1]; 30 minutes, ITT
  Pain relief score A Little (1), %: (41.2) %
  Pain relief score A Lot (3), %: (3.9) %
  Pain relief score None (0), %: (51.0) %
  Pain relief score Some (2), %: (3.9) %
[1]; 45 minutes, ITT
  Pain relief score A Little (1), %: (37.3) %
  Pain relief score A Lot (3), %: (13.7) %
  Pain relief score Complete (4), %: (2.0) %
  Pain relief score None (0), %: (27.5) %
  Pain relief score Some (2), %: (19.6) %
[1]; 1 hour, ITT
  Pain relief score A Little (1), %: (31.4) %
  Pain relief score A Lot (3), %: 25.5%
  Pain relief score Complete (4), %: (3.9) %
  Pain relief score None (0), %: (15.7) %
  Pain relief score Some (2), %: (23.5) %
[1]; 2 hours, ITT
  Pain relief score A Little (1), %: (13.7) %
  Pain relief score A Lot (3), %: (49.0) %
  Pain relief score Complete (4), %: (5.9) %
  Pain relief score None (0), %: (17.6) %
  Pain relief score Some (2), %: (13.7) %
[1]; 3 hours, ITT
  Pain relief score A Little (1), %: (5.9) %
  Pain relief score A Lot (3), %: (51.0) %
  Pain relief score Complete (4), %: (5.9) %
  Pain relief score None (0), %: (21.6) %
  Pain relief score Some (2), %: (15.7) %
[1]; 4 hours, ITT
  Pain relief score A Little (1), %: (7.8) %
  Pain relief score A Lot (3), %: (49.0) %
  Pain relief score Complete (4), %: (9.8) %
  Pain relief score None (0), %: (27.5) %
  Pain relief score Some (2), %: (5.9) %
[1]; 5 hours, ITT
  Pain relief score A Little (1), %: (3.9) %
  Pain relief score A Lot (3), %: (43.1) %
  Pain relief score Complete (4), %: (11.8) %
  Pain relief score None (0), %: (31.4) %
  Pain relief score Some (2), %: (9.8) %
[1]; 6 hours, ITT
  Pain relief score A Little (1), %: (2.0) %
  Pain relief score A Lot (3), %: (37.3) %
  Pain relief score Complete (4), %: (17.6) %
  Pain relief score None (0), %: (37.3) %
  Pain relief score Some (2), %: (5.9) %
[1]; 7 hours, ITT
  Pain relief score A Lot (3), %: (43.1) %
  Pain relief score Complete (4), %: (13.7) %
  Pain relief score None (0), %: (41.2) %
  Pain relief score Some (2), %: (2.0) %
[1]; 8 hours, ITT
  Pain relief score A Lot (3), %: (41.2) %
  Pain relief score Complete (4), %: (13.7) %
  Pain relief score None (0), %: (41.2) %
  Pain relief score Some (2), %: (3.9) %
[1]; Cox proportional hazards model, vs placebo, ITT
  Time to peak pain relief, Hazard ratio: 1.8
[1]; ITT
  Peak pain relief: A Little (1): (11.8) %
  Peak pain relief: A Lot (3): (47.1) %
  Peak pain relief: Complete (4): (21.6) %
  Peak pain relief: None (0): (7.8) %
  Peak pain relief: Some (2): (11.8) %
  Time to peak pain relief: subjects analyzed: (58.8) %
  Time to peak pain relief: subjects censored: (41.2) %
[1]; ITT population
  TOTPAR-4, Mean: 7.152
  TOTPAR-4, Median: 8.750
[1]; Kaplan-Meier estimate, ITT
  Time to peak pain relief, Mean: 3.3 h
  Time to peak pain relief, Q25: 1.50 h
  Time to peak pain relief, Q50: 3.00 h
  Time to peak pain relief, Q75: 5.00 h
[1]; Model 1 (primary): ANCOVA, baseline pain intensity as only covariate, ITT
  TOTPAR-8, LS mean: 14.822
[1]; Model 1 (primary), ITT
  TOTPAR-8, LS mean difference vs placebo: 11.803
[1]; Model 2: baseline pain intensity, gender and surgical trauma rating as covariates, ITT
  TOTPAR-8, LS mean: 14.797
[1]; Model 2, ITT
  TOTPAR-8, LS mean difference vs placebo: 11.864
[1]; Overall, ITT population
  TOTPAR-8, Median: 19.250
[1]; Overall, ITT population, single oral dose (celecoxib 400 mg)
  TOTPAR-8, Mean: 14.858
[1]; Site 50048, ITT population
  TOTPAR-8, Mean: 15.524
  TOTPAR-8, Median: 20.500
[1]; Site 50053, ITT population
  TOTPAR-8, Mean: 14.021
  TOTPAR-8, Median: 14.625
[1]; Site 50054, ITT population
  TOTPAR-8, Mean: 14.639
  TOTPAR-8, Median: 20.750
[1]; […], ITT
  Pain relief score A Little (1), %: (17.6) %
  Pain relief score A Lot (3), %: (31.4) %
  Pain relief score Complete (4), %: (3.9) %
  Pain relief score None (0), %: (17.6) %
  Pain relief score Some (2), %: (29.4) %
[1]; onward after Time 0
  Time point from which pain relief scores were statistically significantly more favorable than placebo: ≥ 45 min
[2]
  Patient's global evaluation of study drug: Excellent, %: (15.7) %
  Patient's global evaluation of study drug: Fair, %: (17.6) %
  Patient's global evaluation of study drug: Good, %: (19.6) %
  Patient's global evaluation of study drug: Poor, %: (11.8) %
  Patient's global evaluation of study drug: Very Good, %: (35.3) %
